We go through 1 molecule from patent US4748251A, “7-n-aminomethylenemitomycin derivative” (priority 1985, dated 1988).

The structures appear in SMILES notation. Where two headings read alike, the source gives them in different places.

The test system of experiment [1] is P-388 leukemia resistant to mitomycin C. Briefly: Anti-tumor activity against P-388 leukemia resistant to mitomycin C. As to conditions: for ILS %: i.p. once. Type of experiment: in vivo, mouse (CDF1). As to the method: (§1) Ascites was sampled from the abdominal cavity of tumor-bearing mice (DBA/2) 7 days after transplantation of P-388 ascitic tumor. The number of the P-388 cells in the ascites was counted. A suspension of the tumor cells of 5×10^6 /ml was prepared using sterilized physiological saline, and 0.2 ml of the suspension (containing 1×10^6 cells) was intraperitoneally transplanted to CDF1 mice weighing 20 to 25 g. Twenty-four hours after the transplantation of the tumor, a test compound was intraperitoneally administered once to groups of the CDF1 mice, each group consisting of 6 mice. […] The effect of the compound was evaluated by a ratio of a mean survival days of the group treated with the compound to a mean survival days of the control group (untreated group) after 33 days of observation (Increased Life Span, ILS %).

The test system of experiment [2] is tumor. Kind of experiment: Anti-tumor activity of Compound A stated in words (GB 2121796A / inventors' own observation). As to conditions: noted by the present inventors.
Experiment [3] has as its system leukemia P-388. Briefly: Anti-tumor activity against leukemia P-388. As to conditions: for ILS %: i.p. once, 33 days. Type of experiment: in vivo, mouse (CDF1). As for the experimental part:
as §1

Experiment [4] deals with tumor. As to conditions: reported in GB 2121796A; cited from earlier work.

For `CO[C@@]12[C@H](COC(N)=O)C3=C(C(=O)C(C)=C(N=CN(C)C)C3=O)N1C[C@@H]1N[C@@H]12` [Compound A, 7-N-Dimethylaminomethylenemitomycin C], the “maximum increased life span” value turned out to be 73% in experiment [1] (P-388 resistant to mitomycin C, Table 4, maximum over doses) and 75% in experiment [3] (P-388, Table 3, maximum over doses). The ILS % is 47% in experiment [1] (dose 0.25 mg/kg); 73% in experiment [1] (dose 0.5 mg/kg); 68% in experiment [1] (dose 1.0 mg/kg); 47% in experiment [1] (dose 2.0 mg/kg); -41% in experiment [1] (dose 4.0 mg/kg); -47% in experiment [1] (dose 6.0 mg/kg). Further, the ILS % in experiment [3] (dose 0.0625 mg/kg) amounted to 15%; in experiment [3] (dose 0.125 mg/kg), 48%; in experiment [3] (dose 0.25 mg/kg) it was 45%; in experiment [3] (dose 0.5 mg/kg), 63%; in experiment [3] (dose 1.0 mg/kg), 68%; in experiment [3] (dose 2.0 mg/kg) it was 75%. Also, the ILS % in experiment [3] (dose 4.0 mg/kg) stood at 20%. Moreover, the anti-tumor activity result in experiment [2] is “excellent anti-tumor activity”; in experiment [4] it was “particularly excellent anti-tumor activity”.
